According to patent EP4781984A1 (Beyang Therapeutics Co., Ltd., priority 2023, dated 2025):
Converted amounts (≈) assume the structure as drawn.

What was measured:
VEGFR2 = target: T1, VEGFR2 (Homo sapiens, UniProt P35968); assay: Kinase inhibitory activity, Mobility Shift Assay (VEGFR2); format: biochemical
T1 construct: purchased Carna 08-191
Procedure: (§1) Assay for Inhibitory Activity of Compounds Against VEGFR and EGFR Kinases
(§2) This assay directly monitors the inhibitory activity of compounds on kinase phosphorylation by measuring non-phosphorylated and phosphorylated substrates in the kinase reaction using Mobility Shift Assays/IMAP™ analysis. Table 2. Reagents and Instruments
(§3) Kinase and DTT were added to 1X kinase buffer to form a 2.5X kinase solution; 10 µL of the 2.5X kinase solution was transferred to a 384-well reaction plate, and 1X kinase buffer was added to the negative control wells. The plate was incubated at room temperature for 10 minutes; FAM-labeled peptide, MgCl2, ATP, and other reagents were added to 1X kinase buffer to form a 2.5X substrate solution; 10 µL of the above 2.5X substrate solution was transferred to the 384-well reaction plate; the plate was incubated at 28°C for varying times, and then 25 µL of stop solution was added to the 384-well reaction plate to terminate the reaction. Conversion rate data were read on a CaliperEZ Reader II. […] IC50 values were fitted using XLFit excel add-in version 5.4.0.8. Y = Bottom + (Top−Bottom)/(1 + […]) [formula]
(§4) X is the log value of compound concentration, Y is the inhibition rate (% inhibition).

melanin = assay: Compound binding to melanin; format: in vitro ADME; settings: cuttlefish (Sepia officinalis), melanin suspension (1 mg/mL), percentage of free drug (not bound to melanin), 2 µM compound, melanin 1 mg/mL in PBS pH 7.4, 37°C
Source text: Detection of Compound Binding to Melanin
Pigmented ocular tissues contain melanin within intracellular melanosomes. Drugs bind to melanin to varying degrees, from no binding to extensive binding. Therefore, melanin binding is an important characteristic affecting ocular drug delivery and biodistribution. The ability of compounds to bind to melanin must be considered in ocular drug development.
Melanin derived from cuttlefish (Sepia officinalis) melanin was purchased from Sigma Aldrich (St Louis, MO).
First, prepare a 1 mg/mL melanin suspension in PBS (pH 7.4). As a matrix washing step, suspended particles were centrifuged at 3000 rpm for 5 minutes. The resulting pellet was resuspended in fresh PBS buffer, heated to 37°C with continuous shaking, and incubated for 1 hour. Accurately pipette 2 microliters of test compound stock solution (0.1 mM) into 98 microliters of melanin suspension (1 mg/mL), resulting in a final incubation concentration of 2 µM. Similarly, accurately pipette 2 microliters of stock solution (0.1 mM) into 98 microliters of PBS buffer (containing 0.1% BSA) as a blank control sample. Samples were incubated at 37°C for 2 hours on a shaker (80-90 rpm). Then centrifuged at room temperature. 50 microliters of supernatant was aspirated and added to 50 microliters of precipitation agent (containing internal standard). All samples above were subjected to protein precipitation, centrifuged, the supernatant was taken, diluted with water (if necessary), and then injected for analysis. Simultaneously, high-binding compounds Sunitinib and chloroquine, and the low-binding compound celecoxib were measured as positive controls. An LC-MS/MS analytical method for determining compound concentration was established. The ratio of analyte/internal standard peak areas (Aanalyte/AIS) measured in the samples, calibrated by the dilution factor, was used as the surrogate concentration for data processing. The binding rate of the compound to melanin (Fb) is calculated by the formula: Fb = 100−(Ctest)/(Ccontrol) × 100% [formula]
Ctest is the drug concentration of the compound in the melanin incubation sample or the peak area ratio of the test compound to the internal standard. Ccontrol is the drug concentration of the compound in the blank control sample or the peak area ratio of the test compound to the internal standard. Percentage of free drug (Fu%) = 100 - Fb The binding rates of the compounds of the present invention to melanin are shown in the table below: Table 11. Binding Rate of Compounds to Melanin

[1] = Thermodynamic solubility test; format: physicochemical; settings: buffer solution, aqueous buffer, thermodynamic from solid; thermodynamic solubility, room temperature, 8 hours shaking; buffers pH 2.0, 6.5, 7.4 used, pH of the tabulated value not given
Procedure: Solubility Test of Compounds
Table 9. Reagents and Instruments
After sonication for 10 minutes, they were fixed on a shaker and shaken at room temperature for 8 hours. After shaking, they were sonicated for 10 minutes and centrifuged at 13000 rpm for 15 minutes. 0.1 mL of supernatant was aspirated into a new tube, rinsed with 5 mL of buffer by shaking, and the liquid was discarded. 0.5 mL of supernatant was transferred again to a new tube, centrifuged at 13000 rpm for 15 minutes, and the supernatant was taken (diluted with water if necessary) for LC-MS injection analysis. Sample concentrations were quantified using a 3-5 point calibration curve.

EGFR = target: T2, EGFR (Homo sapiens, UniProt P00533); assay: Kinase inhibitory activity, Mobility Shift Assay (EGFR); format: biochemical
T2 construct: purchased Carna 08-115
Procedure: as §1, §2, §3, §4

[2] = Ophthalmic formulations based on polyethylene glycol series vehicles: composition and state (Example 7); format: physicochemical
Source text: In the following ophthalmic formulation preparation examples, "solution" refers to a clear, transparent liquid without visible insoluble matter. "Near-clear solution" refers to a liquid that appears close to a solution upon visual observation but may contain a small amount of insoluble particles or have a slightly opaque color. "Suspension" refers to a liquid that is visibly turbid or opaque. "Gel" refers to a completely or partially gel-like solid.
Example 7: Ophthalmic Formulations Based on Polyethylene Glycol Series Vehicles
According to the formulation composition shown in the tables below, weigh the compound powder, add it to polyethylene glycol 400, and sonicate until dissolved or nearly dissolved (heat to 50°C if necessary). Add this to a Tris-HCl buffer solution containing hydroxypropyl-β-cyclodextrin, poloxamer 188, and gellan gum (or other viscosity modifier), vortex to mix, and prepare into an eye drop formulation.

[3] = Table 16: 2 mg/mL, Polyethylene Glycol 400 5, Poloxamer 188 1, Hydroxypropyl-β-cyclodextrin 6, Gellan Gum Gelrite 0.15, Tris-HCl Buffer (pH 6.8) 25mM
[4] = Table 13: 1mg/ml, Polyethylene glycol 400 5, Hydroxypropyl-β-cyclodextrin 10, Tris-HCl buffer (pH 8.3) 50mM, Carbomer 0.48, Poloxamer 188 1
[5] = Table 14: 5mg/ml, Polyethylene glycol 400 10, Hydroxypropyl-β-cyclodextrin 10, Gellan Gum Gelrite 0.3, Poloxamer 188 1, 0.5 M Tris solution 2, 0.1 M Citric acid 1
[6] = Table 15: 10 mg/mL, Polyethylene glycol 400 10, Hydroxypropyl-β-cyclodextrin 10, Gellan Gum Gelrite 0.3, Poloxamer 188 1, Tris solution and Citric acid

T1 sequence (P35968 20-1356): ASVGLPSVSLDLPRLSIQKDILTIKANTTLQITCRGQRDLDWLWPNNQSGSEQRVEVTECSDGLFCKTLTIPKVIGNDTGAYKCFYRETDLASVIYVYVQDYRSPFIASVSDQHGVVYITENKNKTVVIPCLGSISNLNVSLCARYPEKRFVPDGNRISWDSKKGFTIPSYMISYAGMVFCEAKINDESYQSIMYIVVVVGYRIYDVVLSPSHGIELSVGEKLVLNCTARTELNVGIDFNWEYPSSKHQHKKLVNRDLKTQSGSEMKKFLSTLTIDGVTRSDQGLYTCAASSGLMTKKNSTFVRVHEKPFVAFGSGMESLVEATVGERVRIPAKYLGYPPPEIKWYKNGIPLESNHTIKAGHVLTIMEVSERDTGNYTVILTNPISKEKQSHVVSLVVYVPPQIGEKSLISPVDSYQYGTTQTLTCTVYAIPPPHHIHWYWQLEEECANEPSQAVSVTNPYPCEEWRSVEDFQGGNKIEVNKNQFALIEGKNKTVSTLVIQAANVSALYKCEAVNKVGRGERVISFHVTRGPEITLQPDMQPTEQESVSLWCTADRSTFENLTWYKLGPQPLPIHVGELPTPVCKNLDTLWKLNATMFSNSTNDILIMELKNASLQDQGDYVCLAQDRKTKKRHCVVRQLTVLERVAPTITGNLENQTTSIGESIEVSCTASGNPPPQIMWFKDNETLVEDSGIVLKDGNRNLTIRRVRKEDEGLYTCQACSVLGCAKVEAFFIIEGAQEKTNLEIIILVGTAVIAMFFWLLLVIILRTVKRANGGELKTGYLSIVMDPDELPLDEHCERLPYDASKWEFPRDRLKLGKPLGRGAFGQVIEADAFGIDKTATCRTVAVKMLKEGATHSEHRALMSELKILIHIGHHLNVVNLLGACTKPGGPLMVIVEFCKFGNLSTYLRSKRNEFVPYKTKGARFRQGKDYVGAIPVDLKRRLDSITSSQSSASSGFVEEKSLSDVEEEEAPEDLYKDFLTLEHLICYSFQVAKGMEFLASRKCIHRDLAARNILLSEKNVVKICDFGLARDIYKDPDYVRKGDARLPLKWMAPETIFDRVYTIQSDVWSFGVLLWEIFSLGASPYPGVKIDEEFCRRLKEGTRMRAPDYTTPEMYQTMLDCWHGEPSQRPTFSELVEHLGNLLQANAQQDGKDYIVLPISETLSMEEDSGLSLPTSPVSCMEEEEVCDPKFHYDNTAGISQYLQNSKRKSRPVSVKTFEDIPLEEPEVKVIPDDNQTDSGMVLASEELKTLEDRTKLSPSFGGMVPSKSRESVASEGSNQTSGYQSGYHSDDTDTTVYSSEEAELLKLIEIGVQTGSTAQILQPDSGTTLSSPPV
T2 sequence (P00533 25-1210): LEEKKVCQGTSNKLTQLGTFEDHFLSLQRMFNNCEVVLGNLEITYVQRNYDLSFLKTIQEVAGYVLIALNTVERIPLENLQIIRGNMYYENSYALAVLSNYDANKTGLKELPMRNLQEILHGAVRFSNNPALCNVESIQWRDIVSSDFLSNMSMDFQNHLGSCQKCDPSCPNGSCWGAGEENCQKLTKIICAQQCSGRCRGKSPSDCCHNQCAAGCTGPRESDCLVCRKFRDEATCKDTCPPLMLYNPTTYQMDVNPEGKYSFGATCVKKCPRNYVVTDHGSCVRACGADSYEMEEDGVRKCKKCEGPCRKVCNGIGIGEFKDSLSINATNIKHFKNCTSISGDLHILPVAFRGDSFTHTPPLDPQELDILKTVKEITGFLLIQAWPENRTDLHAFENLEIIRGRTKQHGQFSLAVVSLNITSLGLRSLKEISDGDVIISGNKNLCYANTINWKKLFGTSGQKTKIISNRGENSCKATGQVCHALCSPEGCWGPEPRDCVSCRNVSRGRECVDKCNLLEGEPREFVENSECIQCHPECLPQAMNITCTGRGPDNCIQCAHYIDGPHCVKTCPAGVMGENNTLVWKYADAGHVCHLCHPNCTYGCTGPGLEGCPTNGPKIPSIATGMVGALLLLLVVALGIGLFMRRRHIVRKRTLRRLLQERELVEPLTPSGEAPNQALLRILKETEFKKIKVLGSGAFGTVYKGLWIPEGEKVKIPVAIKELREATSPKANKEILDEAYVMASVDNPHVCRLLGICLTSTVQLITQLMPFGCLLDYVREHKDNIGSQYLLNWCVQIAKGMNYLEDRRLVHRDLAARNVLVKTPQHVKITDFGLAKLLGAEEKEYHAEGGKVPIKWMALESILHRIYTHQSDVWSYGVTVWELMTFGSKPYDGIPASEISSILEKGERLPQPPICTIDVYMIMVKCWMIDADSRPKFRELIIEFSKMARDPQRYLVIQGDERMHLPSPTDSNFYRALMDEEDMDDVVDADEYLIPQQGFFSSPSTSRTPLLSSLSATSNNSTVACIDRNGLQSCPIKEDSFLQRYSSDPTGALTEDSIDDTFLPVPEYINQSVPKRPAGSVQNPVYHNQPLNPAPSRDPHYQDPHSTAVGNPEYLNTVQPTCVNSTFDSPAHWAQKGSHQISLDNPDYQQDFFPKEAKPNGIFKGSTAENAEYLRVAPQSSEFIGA

IC50 (VEGFR2)	fraction unbound at 2 h, 2 µM (melanin)	solubility at 8 h [1]	IC50 (EGFR)	SMILES	other results
1 to 10 nM			6000 to 60000 nM	CNC(=O)c1cccc(F)c1Sc1ccc2c(/C=C/c3ccc(CN4CCCC4)cn3)n[nH]c2c1 [Compound I-68, 3-fluoro-N-methyl-2-({3-[(E)-2-{5-[(pyrrolidin-1-yl)methyl]pyridin-2-yl}ethenyl]-1H-indazol-6-yl}sulfanyl)benzamide]	
≤ 1 nM	> 0.05	80.4 µg/mL (≈ 157 µM)		O=C(NC1CC1)c1ccc(F)cc1Sc1ccc2c(/C=C/c3ccc(CN4CCCC4)cn3)n[nH]c2c1 [Compound I-79]	
	> 0.05	2180 µg/mL (≈ 4200 µM)	> 60000 nM	CCNC(=O)c1cc(F)ccc1Sc1ccc2c(/C=C/c3cnn(CCCN4CCCC4)c3)n[nH]c2c1 [Compound I-104, N-ethyl-5-fluoro-2-({3-[(E)-2-{1-[3-(pyrrolidin-1-yl)propyl]-1H-pyrazol-4-yl}ethenyl]-1H-indazol-6-yl}sulfanyl)benzamide]	Osmolality (mOsm/kg) [2, 3]: ~300 mOsm/kg; State Description: pH [2, 3]: ~7; State Description: state [2, 3]: solution
> 100 nM			> 60000 nM	CCNC(=O)c1cccc(F)c1Sc1ccc2c(/C=C/c3cc(CN4CCCC4)ccn3)n[nH]c2c1 [Compound I-114]	
≤ 1 nM			> 60000 nM	O=C(NC1CC1)c1cc(F)ccc1Sc1ccc2c(/C=C/c3cc(CCCN4CCCC4)ccn3)n[nH]c2c1 [Compound I-119]	
≤ 1 nM			> 60000 nM	O=C(NC1CC1)c1ccccc1Sc1ccc2c(/C=C/c3cc(CCCN4CCCC4)ccn3)n[nH]c2c1 [Compound I-120]	

Second part, the compound before the results:

SMILES	IC50 (VEGFR2)	fraction unbound at 2 h, 2 µM (melanin)	solubility at 8 h [1]	IC50 (EGFR)	other results
CNC(=O)c1ccccc1Sc1ccc2c(/C=C/c3ccnn3CCN3CCCC3)n[nH]c2c1 [Compound I-25]	> 100 nM	> 0.05	216 µg/mL (≈ 457 µM)		
CCNC(=O)c1cccc(F)c1Sc1ccc2c(/C=C/c3ccc(CN4CCCC4)cn3)n[nH]c2c1 [Compound I-75, N-ethyl-3-fluoro-2-({3-[(E)-2-{5-[(pyrrolidin-1-yl)methyl]pyridin-2-yl}ethenyl]-1H-indazol-6-yl}sulfanyl)benzamide]					State Description: pH [2, 3]: ~7; State Description: state [2, 3]: solution
O=C(NC1CC1)c1ccccc1Nc1ccc2c(/C=C/c3ccc(CN4CCCC4)cn3)n[nH]c2c1 [Compound I-82, N-cyclopropyl-2-({3-[(E)-2-{5-[(pyrrolidin-1-yl)methyl]pyridin-2-yl}ethenyl]-1H-indazol-6-yl}amino)benzamide]	≤ 1 nM	0.01 to 0.05	294 µg/mL (≈ 614 µM)		
CCN(CC)Cc1ccc(/C=C/c2n[nH]c3cc(Sc4ccc(F)cc4C(=O)NC4CC4)ccc23)nc1 [Compound I-84, N-cyclopropyl-5-fluoro-2-({3-[(E)-2-{5-[(diethylamino)methyl]pyridin-2-yl}ethenyl]-1H-indazol-6-yl}thio)benzamide]		> 0.05	599 µg/mL (≈ 1160 µM)		State Description: pH [2, 4]: ~5; State Description: state [2, 4]: homogeneous suspension; State Description: pH [2, 5]: ~7.5; State Description: state [2, 5]: near-clear solution; State Description: pH [2, 6]: ~5.5; State Description: state [2, 6]: gel; Osmolality (mOsm/kg) [2, 3]: ~300 mOsm/kg; State Description: pH [2, 3]: ~7; State Description: state [2, 3]: solution
CCN(CC)Cc1ccc(/C=C/c2n[nH]c3cc(Sc4c(F)cccc4C(=O)NC4CC4)ccc23)nc1 [Compound I-85]	1 to 10 nM			6000 to 60000 nM	
CCNC(=O)c1ccccc1Sc1ccc2c(/C=C/c3ccc(CN(CC)CC)cn3)n[nH]c2c1 [Compound I-86, 2-({3-[(E)-2-{5-[(diethylamino)methyl]pyridin-2-yl}ethenyl]-1H-indazol-6-yl}thio)-N-ethylbenzamide]		0.01 to 0.05	1130 µg/mL (≈ 2320 µM)		State Description: pH [2, 6]: ~5.5; State Description: state [2, 6]: near-clear solution; Osmolality (mOsm/kg) [2, 3]: ~300 mOsm/kg; State Description: pH [2, 3]: ~7; State Description: state [2, 3]: solution
CCNC(=O)c1ccc(Sc2ccc3c(/C=C/c4ccc(CN(CC)CC)cn4)n[nH]c3c2)cc1F [Compound I-87, 4-({3-[(E)-2-{5-[(diethylamino)methyl]pyridin-2-yl}ethenyl]-1H-indazol-6-yl}sulfanyl)-N-ethyl-2-fluorobenzamide]	> 100 nM			> 60000 nM	
CCNC(=O)c1ccccc1Sc1ccc2c(/C=C/c3cnn(CCCN4CCCC4)c3)n[nH]c2c1 [Compound I-101]	≤ 1 nM			6000 to 60000 nM	
CCN(CC)CCc1ccc(/C=C/c2n[nH]c3cc(Sc4ccc(F)cc4C(=O)NC4CC4)ccc23)nc1 [Compound I-109]	≤ 1 nM	> 0.05	1950 µg/mL (≈ 3680 µM)		
O=C(NC1CC1)c1ccccc1Sc1ccc2c(/C=C/c3cccc(CCN4CCCC4)n3)n[nH]c2c1 [Compound I-134]	1 to 10 nM			> 60000 nM	
